Measurements reported in US9938269B2, “Inhibitor compounds of phosphodiesterase type 10A” (ABBVIE INC., priority 2011, dated 2018).
Structures can show the parent of a compound that is named as a salt.

Tests used:
[1] = Determination of the microsomal half-life, rat liver microsomes; settings: rat, liver microsomes, pH 7.4
[2] = Determination of the microsomal half-life, human liver microsomes; settings: human, liver microsomes, pH 7.4
[3] = molecular target: T1, PDE10A (human) (Homo sapiens, UniProt Q9Y233); assay: Measurement of PDE activity (HTRF cAMP kit), human PDE10A; format: biochemical; settings: PDE enzymatic reaction, substrate 20 nM for PDE10, 60 minutes at 29 C
T1 construct: purchased BPS Bioscience
T1 sequence (Q9Y233 whole entry): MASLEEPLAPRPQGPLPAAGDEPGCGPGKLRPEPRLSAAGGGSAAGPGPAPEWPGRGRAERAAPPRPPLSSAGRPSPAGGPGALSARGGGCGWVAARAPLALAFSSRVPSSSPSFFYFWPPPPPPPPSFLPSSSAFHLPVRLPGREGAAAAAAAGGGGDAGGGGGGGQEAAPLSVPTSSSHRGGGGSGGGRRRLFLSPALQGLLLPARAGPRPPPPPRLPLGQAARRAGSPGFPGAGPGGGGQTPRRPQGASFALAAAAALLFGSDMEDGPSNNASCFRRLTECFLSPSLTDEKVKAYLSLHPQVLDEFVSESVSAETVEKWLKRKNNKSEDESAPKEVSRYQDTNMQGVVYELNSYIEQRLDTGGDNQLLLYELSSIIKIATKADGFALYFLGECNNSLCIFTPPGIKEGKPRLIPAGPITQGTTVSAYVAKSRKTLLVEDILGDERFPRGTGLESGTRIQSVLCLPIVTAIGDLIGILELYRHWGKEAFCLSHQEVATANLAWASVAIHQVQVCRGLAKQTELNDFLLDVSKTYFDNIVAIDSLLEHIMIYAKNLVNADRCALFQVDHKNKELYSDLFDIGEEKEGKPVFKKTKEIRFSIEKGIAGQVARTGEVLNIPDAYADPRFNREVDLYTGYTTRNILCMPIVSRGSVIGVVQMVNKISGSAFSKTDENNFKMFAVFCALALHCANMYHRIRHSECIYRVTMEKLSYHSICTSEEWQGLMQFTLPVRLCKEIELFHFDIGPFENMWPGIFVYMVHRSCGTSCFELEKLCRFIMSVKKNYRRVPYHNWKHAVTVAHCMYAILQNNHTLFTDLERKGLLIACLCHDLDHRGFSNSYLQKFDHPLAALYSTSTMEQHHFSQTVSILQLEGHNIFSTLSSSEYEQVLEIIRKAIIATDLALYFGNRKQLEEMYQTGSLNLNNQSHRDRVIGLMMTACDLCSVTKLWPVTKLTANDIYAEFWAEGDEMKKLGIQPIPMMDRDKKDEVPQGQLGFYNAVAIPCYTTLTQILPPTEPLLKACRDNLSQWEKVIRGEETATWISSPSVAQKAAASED
Outline: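 Recombinant human PDE10A (10–250 pM range across PDEs) with 20 nM cAMP substrate in 20 mM Tris-HCl pH 7.5, 10 mM MgCl2, 0.1% BSA, compound pre-mixed with enzyme. Ran 60 min at 29 °C. Remaining cAMP read by HTRF, converted to % of uninhibited activity, and IC50 fitted.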

| Compound | microsomal CLint at 0.5 μM [1] [µL/min/mg] | microsomal CLint at 0.5 μM [2] [µL/min/mg] | IC50 [3] [µM] |
| --- | --- | --- | --- |
| O=C1c2c(-c3cn[nH]c3)ccnc2CN1CCc1nc2ccccc2s1 [compound 538, 6-[2-(1,3-Benzothiazol-2-yl)ethyl]-4-(1H-pyrazol-4-yl)-7H-pyrrolo[3,4-b]pyridin-5-one trifluoroacetate] | 100 to 220 | < 100 | < 0.1 |
| O=C1c2c(-c3cc[nH]n3)ccnc2CN1CCc1nc2ccccc2s1 [compound 429, 6-[2-(1,3-Benzothiazol-2-yl)ethyl]-4-(1H-pyrazol-3-yl)-7H-pyrrolo[3,4-b]pyridin-5-one] | < 100 | < 100 | < 0.1 |
| O=C1c2c(-c3cn[nH]c3)ccnc2CN1CCc1cn2ccccc2n1 [Example 365, 6-(2-Imidazo[1,2-a]pyridin-2-yl-ethyl)-4-(1H-pyrazol-4-yl)-6,7-dihydro-pyrrolo[3,4-b]pyridin-5-one] | 100 to 220 | < 100 | < 0.1 |
| O=C1c2c(cccc2-c2ccncc2)CN1CCc1cn2ccccc2n1 [Example 20, 2-(2-Imidazo[1,2-a]pyridin-2-yl-ethyl)-7-pyridin-4-yl-2,3-dihydro-isoindol-1-one] | < 100 | < 100 | < 0.1 |
| COc1ccc(-c2ccncc2)c2c1C(=O)N(CCc1cn3ccccc3n1)C2 [compound 448, 2-(2-Imidazo[1,2-a]pyridin-2-yl-ethyl)-7-methoxy-4-pyridin-4-yl-2,3-dihydro-isoindol-1-one trifluoroacetate] | < 100 | < 100 | < 0.1 |
| O=C1c2c(-c3ccncc3)ccnc2CN1CCc1nc2ccccc2s1 [Example 375, 6-(2-Benzothiazol-2-yl-ethyl)-4-pyridin-4-yl-6,7-dihydro-pyrrolo[3,4-b]pyridin-5-one] | < 100 | < 100 | < 0.1 |
| Cc1ccc2c(c1)nc(CCN1Cc3nccc(-c4ccncc4)c3C1=O)n2C [compound 536, 6-[2-(1,5-Dimethyl-1H-benzoimidazol-2-yl)-ethyl]-4-pyridin-4-yl-6,7-dihydro-pyrrolo[3,4-b]pyridin-5-one] | < 100 | 100 to 220 | < 0.1 |

The next lines start with the values.

| microsomal CLint at 0.5 μM [1] [µL/min/mg] | microsomal CLint at 0.5 μM [2] [µL/min/mg] | IC50 [3] [µM] | Compound |
| --- | --- | --- | --- |
| < 100 | < 100 | < 0.1 | Cn1c(CCN2Cc3nccc(N4CCOCC4)c3C2=O)nc2ccccc21 [Example 216, 6-[2-(1-Methyl-1H-benzoimidazol-2-yl)-ethyl]-4-morpholin-4-yl-6,7-dihydro-pyrrolo[3,4-b]pyridin-5-one] |
| < 100 | < 100 | 0.2 to 0.5 | O=C1c2c(N3CCOCC3)ccnc2CN1CCc1ccc(Cl)cn1 [compound 505, 6-[2-(5-Chloro-2-pyridyl)ethyl]-4-morpholino-7H-pyrrolo[3,4-b]pyridin-5-one] |
| < 100 | < 100 | < 0.1 | O=C1c2c(N3CCOCC3)ccnc2CN1CCc1nc2ccccn2n1 [Example 227, 4-Morpholin-4-yl-6-(2-[1,2,4]triazolo[1,5-a]pyridin-2-yl-ethyl)-6,7-dihydro-pyrrolo[3,4-b]pyridin-5-one] |
| 100 to 220 | 100 to 220 | < 0.1 | CCn1c(CCN2Cc3cccc(N4CCOCC4)c3C2=O)nc2ccccc21 [Example 278, 2-[2-(1-Ethyl-1H-benzoimidazol-2-yl)-ethyl]-7-morpholin-4-yl-2,3-dihydro-isoindol-1-one] |
| 100 to 220 | < 100 | < 0.1 | O=C1c2c(N3CCC(O)CC3)ccnc2CN1CCc1ccc2ccccc2n1 [compound 530, 4-(4-Hydroxy-piperidin-1-yl)-6-(2-quinolin-2-yl-ethyl)-6,7-dihydro-pyrrolo[3,4-b]pyridin-5-one trifluoroacetate] |
